Experimental data reported in PMC6978316, “Development of chimeric peptides to facilitate the neutralisation of lipopolysaccharides during bactericidal targeting of multidrug-resistant Escherichia coli” (Communications Biology, 2020).
Where a SMILES comes first, the peptide text is derived from it. Bridges are numbered along the chain shown (N, C = ends).

Assays:
E. coli LPS = experiment: BODIPY-TR-cadaverine (BC) displacement assay; format: binding, Escherichia coli; details: 100 μM
Description: The affinity of SCPs (A6, G6, and N6) to E. coli LPS was detected by the fluorescent BC probe. The binding of fluorescent probe with LPS can cause fluorescence quenching. When peptides bind to LPS, BC probe can be replaced, which can result in an increase in fluorescence. Equal volumes of LPS (40 μg per ml) and BC probe (10 μM) in 50 mM Tris buffer (pH 7.4) were mixed and added into a black 96-well microtiter plate (180 μl mixture per well), followed by the addition of different concentrations of A6, G6, or N6 (20 μl per well). Ampicillin and PMB were used as the negative and positive control, respectively. Changes in fluorescence were measured by a fluorescence spectrophotometry at room temperature (excitation: 580 nm, emission: 620 nm) and the BC displacement rate was calculated.

[1] = system: binding of FITC-labeled LPS to RAW 264.7 cells; experiment: Binding of FITC-labeled LPS to macrophages (flow cytometry); format: cell-based, mouse; details: FITC-LPS 100 μg per ml, 0.1 μM peptide 1 h
Description: Similarly, after an incubation with FITC-labeled LPS and washing with medium, cells were incubated with rhodamine-labeled A6 or G6 (0.1 μM) at 37 °C for 1 h. After washing again, the effects of peptides on the binding of FITC-labeled LPS to the cells were analyzed by CLSM and flow cytometry, respectively.

MDR E. coli CVCC195 [2] = experiment: Time-killing curves (bactericidal kinetics); format: cell-based, Escherichia coli; details: 1 × or 2 × MIC, MHB, 37 °C
Description: The bactericidal effect of peptides was investigated according to previous methods. […] Physiological saline was added as a control. Bacterial samples (100 μl) were removed at different time points (0, 0.5, 1, 2, 4, 6, 8, 10, and 12 h) and were counted on MH solid plates. The time-killing curve of A6 and G6 was plotted.

IκBα = experiment: Western blotting of lung tissues, IκBα/β-actin; format: in vivo, mice; details: for densitometric analysis of IκBα/β-actin ratio: LPS + substance, Mean; for effect on LPS-induced IκBα levels: lung tissue 8 h, LPS 13.5 mg per kg, western blotting
Description: (§1) Additionally, the mice were sacrificed at 8 h and the lung tissues were homogenized and suspended in […] HEPES buffer for 20 min according to standard procedures. After centrifugation at 4 °C for 20 min (12,000 rpm), the protein levels of supernatants were quantified using a Bradford protein assay kit. A total of 30 μg proteins were analyzed on an 8–12% sodium dodecyl sulfate-polyacrylamide gel electrophoresis (SDS-PAGE) gel and were immunoblotted onto PVDF membranes, followed by an incubation with the primary antibodies of p65, p-p65, extracellular signal-regulated kinase (ERK)1/2, p-ERK1/2, and IκBα overnight at 4 °C. After washing, the blots were incubated with the peroxidase conjugated goat-rabbit or goat-mouse antibodies. Relative protein expression levels were quantified by a densitometric measurement of chemiluminescence (ECL) reaction band. β-actin was used as the internal reference.

binding of LPS to LBP = experiment: Binding of LPS to LBP on LPS-immobilized plate (ELISA); format: biochemical; details: mean of n = 3
Description: The 96-well microtiter plates were coated with 4 ng per ml LPS (0.1 M Na2CO3 and 20 mM EDTA, pH 9.6, 50 μl per well) overnight at 4 °C, washed three times with PBST, and blocked with PBS (containing 1% BSA) for 2 h. After washing with PBST again, the plates were incubated at 37 °C for 1 h with different concentrations of peptides (A6, G6, or N6), which were dissolved in Dulbecco's Modified Eagle's (DMEM) medium (containing 10% FBS). After washing, cells were incubated with anti-LBP mAb 6G3 (ThermoFisher) for 1 h at 37 °C and HRP-conjugated rabbit anti-mouse IgG for 1 h at room temperature, respectively. Tetramethylbenzidine (TMB) solution was then added and incubated for 25–30 min. Finally, the reaction was stopped by addition of 0.5 M H2SO4, and the absorbance was measured at 450 nm[50].

MDR E. coli CVCC195 [3] = experiment: Thermal stability, residual antibacterial activity (inhibition zone); format: physicochemical, Escherichia coli; details: mean of n = 3
Description: The N6, A6, and G6 solutions were treated at different temperatures (20–100 °C) for 1 h, dissolved and incubated at different pH values (2–10) for 3 h, or incubated with trypsin or pepsin for 4 h. The inhibition zone diameters were measured after incubation at 37 °C for 18–24 h.

NF-κB p-p65 subunit = experiment: Western blotting of lung tissues, p-p65/p65; format: in vivo, mice; details: for densitometric analysis of p-p65/p65 ratio: LPS + substance, Mean; for inhibition of LPS-induced translocation of the NF-κB p-p65 subunit: lung tissue 8 h, LPS 13.5 mg per kg, western blotting, densitometry
Description: as §1

ERK1/2 phosphorylation = experiment: Western blotting of lung tissues, p-ERK1/2/ERK1/2; format: in vivo, mice; details: for densitometric analysis of p-ERK1/2/ERK1/2 ratio: LPS + substance, Mean; for attenuation of ERK1/2 phosphorylation: lung tissue 8 h, LPS 13.5 mg per kg, western blotting, densitometry
Description: as §1

MDR E. coli CVCC195 [4] = experiment: SEM and TEM, cell morphology and ultrastructure; format: cell-based, Escherichia coli; details: E. coli CVCC195, 4 × MIC, 2 h; at least 200 cells scored; manuscript lines quoted in the peer review file
Description: SEM was used to examine the ultrastructural changes in bacteria treated with peptides. […] PBS was used as the negative control. After centrifugation, the bacterial precipitation was added with 2.5% glutaraldehyde and the cells were fixed at 4 °C for 24 h. After ethanol dehydration, drying and coating, samples were visualized by a QUANTA200 SEM (FEI, Philips, Netherlands)[65].
The processing and preparation of TEM samples was similar to that of SEM until glutaraldehyde fixation. After washing with PBS, bacterial cells were fixed in 1% […] buffer for 1 h, dehydrated in a series of acetone (50–100%) and embedded, followed by preparation into ultra-thin sections and staining with 1% uranyl acetate. […] At least 200 bacterial cells were visualized and scored for the observed characteristics.

LPS-induced lung injury = experiment: Protection of lung tissues from LPS (histology); format: in vivo; details: LPS-challenged mice, 0.25 μmol per kg
Description: The mice were treated with N6 (0.25 μmol per kg), A6 (0.25 μmol per kg), G6 (0.25 μmol per kg), and PMB (10 μmol per kg), respectively after the intraperitoneal injection of LPS at a concentration of LD100. The lung tissues were taken at 1 d and 6 d, respectively, washed with PBS and placed in 4% paraformaldehyde for 24 h at 4 °C. After washing with PBS, the tissues were dehydrated by a series of different concentrations of ethanol (75%, 85%, 90%, and 95%) and were immersed in xylene for paraffin embedding. After sectioning, the samples were stained with hematoxylin and were observed by a light microscope. The mice challenged with LPS and PBS served as the negative and blank control, respectively.

[5] = 0.625 μM, LPS-coated plate, peptide in DMEM + 10% FBS, 37 °C, 1 h, anti-LBP mAb, OD450
[6] = 20℃ for 1 h, inhibition zone vs E. coli CVCC195 after 37 °C 18–24 h
[7] = 40℃ for 1 h, inhibition zone vs E. coli CVCC195
[8] = 60℃ for 1 h, inhibition zone vs E. coli CVCC195
[9] = 80℃ for 1 h, inhibition zone vs E. coli CVCC195
[10] = 100℃ for 1 h, inhibition zone vs E. coli CVCC195

Row | Molecule | BC displacement ratio (E. coli LPS) [%] | inhibition rate of FITC-labeled LPS binding to RAW 264.7 cells [1] [%] | time to completely kill E. coli CVCC195 (MDR E. coli CVCC195 [2]) [h] | densitometric analysis of IκBα/β-actin ratio (IκBα) | effect on LPS-induced IκBα levels (IκBα) | LPS-LBP binding (relative), Mean (binding of LPS to LBP; [5]) | LPS-LBP binding (relative), Mean (binding of LPS to LBP; 1.25 μM) | LPS-LBP binding (relative), Mean (binding of LPS to LBP; 2.5 μM) | LPS-LBP binding (relative), Mean (binding of LPS to LBP; 5 μM) | LPS-LBP binding (relative), Mean (binding of LPS to LBP; 10 μM) | LPS-LBP binding (relative), Mean (binding of LPS to LBP; 20 μM) | LPS-LBP binding (relative), Mean (binding of LPS to LBP; 40 μM) | antibacterial activity after heat treatment (inhibition zone diameter), Mean (MDR E. coli CVCC195 [3]; [6]) | antibacterial activity after heat treatment (inhibition zone diameter), Mean (MDR E. coli CVCC195 [3]; [7]) | antibacterial activity after heat treatment (inhibition zone diameter), Mean (MDR E. coli CVCC195 [3]; [8]) | antibacterial activity after heat treatment (inhibition zone diameter), Mean (MDR E. coli CVCC195 [3]; [9]) | antibacterial activity after heat treatment (inhibition zone diameter), Mean (MDR E. coli CVCC195 [3]; [10]) | densitometric analysis of p-p65/p65 ratio (NF-κB p-p65 subunit) | inhibition of LPS-induced translocation of the NF-κB p-p65 subunit (NF-κB p-p65 subunit) [%] | densitometric analysis of p-ERK1/2/ERK1/2 ratio (ERK1/2 phosphorylation) | further results
1 | CC(C)[C@@H]1NC(=O)CNC(=O)[C@H](CC(N)=O)NC(=O)[C@H](CCCNC(=N)N)NC(=O)[C@H](Cc2ccc(O)cc2)NC(=O)[C@H](C(C)C)NC(=O)[C@@H](NC(=O)[C@@H](NC(=O)[C@H](CC(N)=O)NC(=O)[C@H](Cc2c[nH]c3ccccc23)NC(=O)[C@H](C)NC(=O)[C@H](Cc2ccccc2)NC(=O)CNC(=O)[C@H](CO)NC(=O)CNC(=O)CNC(=O)CNC(=O)CNC(=O)[C@H](CCCCN)NC(=O)[C@H](Cc2ccccc2)NC(=O)[C@H](Cc2ccccc2)NC(=O)[C@H](CO)NC(=O)[C@H](C)NC(=O)[C@H](CCCNC(=N)N)NC(=O)[C@@H](NC(=O)[C@H](CCCCN)NC(=O)[C@H](Cc2c[nH]c3ccccc23)NC(=O)[C@H](CCCNC(=N)N)NC(=O)CNC(=O)[C@H](CCC(N)=O)NC(=O)[C@@H](NC(=O)[C@@H](N)CCCNC(=N)N)C(C)C)C(C)C)C(C)C)CSSC[C@@H](C(=O)N[C@@H](Cc2c[nH]cn2)C(=O)N[C@@H](CCCNC(=N)N)C(=O)N[C@@H](CCCNC(=N)N)C(=O)N[C@@H](C)C(=O)N[C@@H](CC(N)=O)C(=O)O)NC(=O)[C@H](C(C)C)NC(=O)[C@H](CCCNC(=N)N)NC1=O [G6] (H-RVQGRWKVRASFFKGGGGSGFAWNVCVYRNGVRVCHRRAN-OH; disulfide 26-35) | 100 | 44.3 | ≤ 1 | 0.9933 | promoted LPS-induced IκBα levels | 0.7905 | 0.7506 | 0.344 | 0.2387 | 0.1958 | 0.1311 | 0.1347 | 1.451 | 1.421 | 1.5 | 1.473 | 1.413 | 0.7685 | 25.3 | 0.1248 | attenuation of ERK1/2 phosphorylation (ERK1/2 phosphorylation): 88.2%; abnormal cells in TEM (lysis, non-uniform cytoplasmic electron and morphologically abnormal cells) (MDR E. coli CVCC195 [4]): ~50%; lung histology at 1 d (LPS-induced lung injury): partial alleviation of tissue swelling and injury; lung histology at 6 d (LPS-induced lung injury): no pathological changes
2 | H-RVQGRWKVRASFFKEAAAKEAAAKGFAWNVCVYRNGVRVCHRRAN-OH (disulfide 31-40) [A6] | 100 | 33.2 | ≤ 1 | 1.193 | promoted LPS-induced IκBα levels | 0.6863 | 0.4991 | 0.4036 | 0.3236 | 0.2858 | 0.2468 | 0.1705 | 1.498 | 1.533 | 1.494 | 1.5 | 1.477 | 0.106 | 89.7 | 1.795 | attenuation of ERK1/2 phosphorylation (ERK1/2 phosphorylation): moderately promoted the ERK1/2 phosphorylation; abnormal cells in TEM (lysis, non-uniform cytoplasmic electron and morphologically abnormal cells) (MDR E. coli CVCC195 [4]): Approximately 75%; lung histology at 1 d (LPS-induced lung injury): partial alleviation of tissue swelling and injury; lung histology at 6 d (LPS-induced lung injury): no pathological changes
